# Results reported in PMC8659243, “Design, Synthesis and Tumour-Selective Toxicity of Novel 1-[3-{3,5-Bis(benzylidene)-4-oxo-1-piperidino}-3-oxopropyl]-4-piperidone Oximes and Related Quaternary Ammonium Salts” (Molecules, 2021).
# Counter-ions that a name gives are not always drawn.
# Tests used:
# Ca9-22 cells = experiment: Cytotoxicity against Ca9-22 cells, MTT method, 48 h; type: cell-based, human; conditions: for CC50: Homo sapiens, Ca9-22, concentration required to kill 50% of the cells, 48 h, MTT, read-out: CC50 Ca9-22; for SI Ca9-22: average CC50 towards HGF, HPLF, HPC divided by CC50 against Ca9-22
# Experimental: (§1) A literature procedure was followed when the compounds in series 3 and 4 were evaluated against three human oral squamous cell carcinoma cell lines Ca9-22 (RCB-1976), HSC-2 (RCB1945), HSC-4 (RCB1902) (purchased from RIKEN Cell Bank, Tukuba, Japan) and three human normal oral cells, gingival fibroblast (HGF), periodontal ligament fibroblast (HPLF) and pulp cells (HPC) (established according to the guideline of the intramural ethic committee, A0808) except the duration of incubation was increased from 24 h to 48 h. In brief, various concentrations of the compounds were added to the DMEM media, which was supplemented by 10% heat-inactivated fetal bovine serum. Incubation was undertaken at 37 °C. At the completion of the experiment, cell viability was determined by the MTT method.
# HSC-2 cells = experiment: Cytotoxicity against HSC-2 cells, MTT method, 48 h; type: cell-based, human; conditions: for CC50: Homo sapiens, HSC-2, concentration required to kill 50% of the cells, 48 h, MTT; for SI HSC-2: average CC50 towards HGF, HPLF, HPC divided by CC50 against HSC-2
# Experimental: as §1
# HSC-4 cells = experiment: Cytotoxicity against HSC-4 cells, MTT method, 48 h; type: cell-based, human; conditions: for CC50: Homo sapiens, HSC-4, concentration required to kill 50% of the cells, 48 h, MTT, read-out: CC50 HSC-4; for SI HSC-4: average CC50 towards HGF, HPLF, HPC divided by CC50 against HSC-4
# Experimental: as §1
# [1] = tested on: Ca9-22, HSC-2 and HSC-4 cells; experiment: Average over Ca9-22, HSC-2 and HSC-4 neoplastic cells; type: cell-based, human; conditions: for CC50: Homo sapiens, average of Ca9-22, HSC-2 and HSC-4, read-out: Average CC50; for Average SI: average of SI for Ca9-22, HSC-2 and HSC-4
# Experimental: In order to assess whether the compounds in series 3 and 4 are more toxic to neoplasms than non-malignant cells, selective index (SI) figures were calculated. In the in vivo situation, a tumour is surrounded by a number of non-malignant cells.
# In order to identify the most promising lead compounds in terms of both cytotoxic potencies and favourable SI values, potency–selectivity expression (PSE) values were computed. […] Outstanding results may be noted for four compounds that have PSE values in excess of 100,000 namely 3d, 4c–e. […] However, the relative SI/PSE distribution patterns between series 3 and 4 (from a to h) are nearly superimposable with each other (Figure 3). […] It has been reported that 3,5-bis(3-iodo-5-methoxy-4-propoxybenzylidene)-N-acetylpiperidin-4-one inhibited tubulin and destabilization of microtubules, while 3,5-bis(3,4,5-trimethoxybenzylidene)-N-benzoylpiperidin-4-one destabilizes the microtubules. Thus, it remained to investigate whether compound 4d acts as an inhibitor of the microtubule.
# as §1
# [2] = Cytotoxicity against non-malignant HGF cells, MTT method, 48 h; type: cell-based; conditions: human, gingival fibroblasts (HGF)
# Experimental: as §1
# [3] = Cytotoxicity against non-malignant HPLF cells, MTT method, 48 h; type: cell-based; conditions: human, periodontal ligament fibroblasts (HPLF)
# Experimental: as §1
# [4] = Cytotoxicity against non-malignant HPC cells, MTT method, 48 h; type: cell-based; conditions: human, pulp cells (HPC)
# Experimental: as §1
# [5] = Average over HGF, HPLF and HPC non-malignant cells; type: cell-based; conditions: human, HPLF and HPC non-malignant cells (average of the three)
# Experimental: as §1
# [6] = tested on: CEM T-lymphoblastic leukemia cells; experiment: Cytotoxicity against CEM cells, MTT method, 24 h; type: cell-based; conditions: Homo sapiens, CCRF-CEM, concentration required to inhibit cell growth by 50%
# Experimental: The method used for the evaluation of various compounds against human CEM cells has been reported previously. In brief, cells were grown in RPMI-1640 medium supplemented with 10% heat-inactivated fetal bovine serum. Different concentrations of compounds were added to the media, and after 24 h incubation, cytotoxicity was measured by the MTT method.
# HL-60 (TB) cells = experiment: NCI in vitro screen, leukemia HL-60 (TB); type: cell-based; conditions: Homo sapiens
# Description: (§2) In view of the encouraging result with CEM leukemic cells, consideration was given to an assessment in the NCI in vitro screening program. The oximes, but not the quaternary ammonium salts, were accepted for bioevaluation. Examination of the mean graphs confirms the sensitivity of leukemic cells to these compounds.
# K-562 cells = experiment: NCI in vitro screen, leukemia K-562; type: cell-based; conditions: Homo sapiens, K562
# Description: as §2
# Molt-4 cells = experiment: NCI in vitro screen, leukemia Molt-4; type: cell-based; conditions: Homo sapiens
# Description: as §2
# RPMI-8226 cells = experiment: NCI in vitro screen, leukemia RPMI-8226; type: cell-based; conditions: Homo sapiens
# Description: as §2
# SR cells = experiment: NCI in vitro screen, leukemia SR; type: cell-based; conditions: Homo sapiens
# Description: as §2
# leukemia cells = experiment: NCI in vitro screen, average of leukemia cells; type: cell-based; conditions: Homo sapiens
# Description: as §2
# All Cell Lines = experiment: NCI in vitro screen, all cell lines; type: cell-based; conditions: Homo sapiens
# Description: (§3) One particular reference drug is 5-fluorouracil, which is used in treating colon cancers.
# Colo205 cells = experiment: NCI in vitro screen, colon cancer Colo205; type: cell-based; conditions: Homo sapiens, COLO 205
# Description: as §3
# HCC-2998 cells = experiment: NCI in vitro screen, colon cancer HCC-2998; type: cell-based; conditions: Homo sapiens
# Description: as §3
# HCT-116 cells = experiment: NCI in vitro screen, colon cancer HCT-116; type: cell-based; conditions: Homo sapiens
# Description: as §3
# HCT-15 cells = experiment: NCI in vitro screen, colon cancer HCT-15; type: cell-based; conditions: Homo sapiens
# Description: as §3
# HT29 cells = experiment: NCI in vitro screen, colon cancer HT29; type: cell-based; conditions: Homo sapiens, HT-29
# Description: as §3
# KM12 cells = experiment: NCI in vitro screen, colon cancer KM12; type: cell-based; conditions: Homo sapiens
# Description: as §3
# SW-620 cells = experiment: NCI in vitro screen, colon cancer SW-620; type: cell-based; conditions: Homo sapiens
# Description: as §3
# colon cancer cells = experiment: NCI in vitro screen, average of colon cancer cells; type: cell-based; conditions: Homo sapiens
# Description: as §3
# [7] = Stability by 1H NMR in 9:1 deuterated dimethylsulfoxide and deuterium oxide; type: physicochemical; conditions: 37 °C
SMILES,CC50 (Ca9-22 cells) [nM],SI Ca9-22 (Ca9-22 cells),CC50 (HSC-2 cells) [nM],SI HSC-2 (HSC-2 cells),CC50 (HSC-4 cells) [nM],SI HSC-4 (HSC-4 cells),CC50 [1] [nM],Average SI [1],CC50 at 48 h [2] [nM],CC50 at 48 h [3] [nM],CC50 at 48 h [4] [nM],CC50 at 48 h [5] [nM],IC50 [6] [nM],IC50 (HL-60 (TB) cells) [nM],IC50 (K-562 cells) [nM],IC50 (Molt-4 cells) [nM],IC50 (RPMI-8226 cells) [nM],IC50 (SR cells) [nM],IC50 (leukemia cells) [nM],IC50 (All Cell Lines) [nM],further results
"O=C1/C(=C/c2ccccc2)CN(C(=O)CCN2CCC(=NO)CC2)C/C1=C\c1ccccc1 (as salt: hydrochloride) [Compound 3a, (3~{E},5~{E})-3,5-bis-benzylidine-1-[3-(4-hydroximino-1-piperidyl)propanoyl]piperidin-4-one hydrochloride]",–,–,–,–,–,–,–,–,–,–,–,–,–,–,–,–,–,–,–,–,melting point: 172.3 °C
"O=C1/C(=C/c2ccccc2)CN(C(=O)CCN2CCC(=NO)CC2)C/C1=C\c1ccccc1 [Compound 3a, (3~{E},5~{E})-3,5-bis-benzylidine-1-[3-(4-hydroximino-1-piperidyl)propanoyl]piperidin-4-one hydrochloride]",650 ± 70,16.9,890 ± 60,12.4,440 ± 160,25.0,660,18.1,7110 ± 470,14300 ± 3790,11500 ± 2570,11000,5390 ± 260,2600,400,690,320,330,850,1510,IC50 (Colo205 cells): 1700 nM; IC50 (HCC-2998 cells): 1740 nM; IC50 (HCT-116 cells): 680 nM; IC50 (HCT-15 cells): 1380 nM; IC50 (HT29 cells): 1200 nM; IC50 (KM12 cells): 660 nM; IC50 (SW-620 cells): 320 nM; IC50 (colon cancer cells): 1100 nM; stability: 1H NMR spectra in dissolution and after 48 h incubation [7]: identical
"O=C1/C(=C/c2ccc(Cl)c(Cl)c2)CN(C(=O)CCN2CCC(=NO)CC2)C/C1=C\c1ccc(Cl)c(Cl)c1 [Compound 3d, (3~{E},5~{E})-3,5-bis[(3,4-dichlorophenyl)methylene]-1-[3-(4-hydroximino-1-piperidyl)propanoyl]piperidin-4-one hydrochloride]",20 ± 10,180,100 ± 20,35.9,70,51.3,60,89.1,1910 ± 220,3900 ± 1420,4970 ± 890,3590,8490 ± 340,1000,250,320,230,100,370,1300,IC50 (Colo205 cells): 390 nM; IC50 (HCC-2998 cells): 360 nM; IC50 (HCT-116 cells): 320 nM; IC50 (HCT-15 cells): 270 nM; IC50 (HT29 cells): 320 nM; IC50 (KM12 cells): 250 nM; IC50 (SW-620 cells): 230 nM; IC50 (colon cancer cells): 310 nM
"O=C1/C(=C/c2ccc([N+](=O)[O-])cc2)CN(C(=O)CCN2CCC(=NO)CC2)C/C1=C\c1ccc([N+](=O)[O-])cc1 [Compound 3e, (3~{E},5~{E})-1-[3-(4-hydroximino-1-piperidyl)propanoyl]-3,5-bis[(4-nitrophenyl)methylene]piperidin-4-one]",30,109,120 ± 90,27.3,90 ± 20,36.3,80,57.5,1670 ± 310,3060 ± 160,5070 ± 210,3270,11600 ± 310,1550,280,400,300,100,500,1790,IC50 (Colo205 cells): 400 nM; IC50 (HCC-2998 cells): 1170 nM; IC50 (HCT-116 cells): 490 nM; IC50 (HCT-15 cells): 360 nM; IC50 (HT29 cells): 330 nM; IC50 (KM12 cells): 290 nM; IC50 (SW-620 cells): 200 nM; IC50 (colon cancer cells): 460 nM
"Cc1ccc(/C=C2\CN(C(=O)CCN3CCC(=NO)CC3)C/C(=C\c3ccc(C)cc3)C2=O)cc1 [Compound 3f, (3~{E},5~{E})-3,5-bis[(4-methylphenyl)methylene]-1-[3-(4-hydroximino-1-piperidyl)propanoyl]piperidin-4-one hydrochloride]",470 ± 40,15.3,750 ± 40,9.57,430 ± 120,16.7,550,13.9,5700 ± 650,8000 ± 200,7850 ± 7100,7180,8420 ± 1100,1700,320,370,300,310,550,1230,IC50 (Colo205 cells): 1150 nM; IC50 (HCC-2998 cells): 1580 nM; IC50 (HCT-116 cells): 360 nM; IC50 (HCT-15 cells): 550 nM; IC50 (HT29 cells): 350 nM; IC50 (KM12 cells): 280 nM; IC50 (SW-620 cells): 290 nM; IC50 (colon cancer cells): 650 nM
"COc1ccc(/C=C2\CN(C(=O)CCN3CCC(=NO)CC3)C/C(=C\c3ccc(OC)cc3)C2=O)cc1 [Compound 3g, (3~{E},5~{E})-3,5-bis[(4-methoxyphenyl)methylene]-1-[3-(4-hydroximino-1-piperidyl)propanoyl]piperidin-4-one hydrochloride]",590 ± 60,18.3,1560 ± 550,6.92,650 ± 20,16.6,930,13.9,6630 ± 60,12100 ± 1790,13600 ± 600,10800,4350 ± 200,2820,1200,2950,650,620,1880,1280,IC50 (Colo205 cells): 2040 nM; IC50 (HCC-2998 cells): 1860 nM; IC50 (HCT-116 cells): 1740 nM; IC50 (HCT-15 cells): 2140 nM; IC50 (HT29 cells): 2040 nM; IC50 (KM12 cells): 1740 nM; IC50 (SW-620 cells): 1380 nM; IC50 (colon cancer cells): 1840 nM
"COc1cc(/C=C2\CN(C(=O)CCN3CCC(=NO)CC3)C/C(=C\c3cc(OC)c(OC)c(OC)c3)C2=O)cc(OC)c1OC [Compound 3h, (3~{E},5~{E})-1-[3-(4-hydroximino-1-piperidyl)propanoyl]-3,5-bis[(3,4,5-trimethoxyphenyl)methylene]piperidin-4-one]",70 ± 30,43.9,230 ± 20,13.4,300 ± 150,10.2,200,22.5,2180 ± 230,5220 ± 690,1800 ± 600,3070,2310 ± 300,270,320,290,320,300,300,1220,IC50 (Colo205 cells): 260 nM; IC50 (HCC-2998 cells): 210 nM; IC50 (HCT-116 cells): 210 nM; IC50 (HCT-15 cells): 1230 nM; IC50 (HT29 cells): 330 nM; IC50 (KM12 cells): 200 nM; IC50 (SW-620 cells): 300 nM; IC50 (colon cancer cells): 390 nM
